Source: ChEMBL document CHEMBL1201862, “PubChem BioAssay data set” (2004)
Active and inactive are the calls of the source. Unless noted, the calls are words filed in the database; no cut-off is given here.

How the values were obtained:
[1] = biological target: Protein kinase C beta type (Homo sapiens, UniProt P05771); experiment: In Vitro Kinase Assay Using Purified Enzyme PKC-beta. [Related pubchem assays: 1299, 1270, 1295, 1375, 1287, 1281, 1293, 1291, 1289, 465, 1364, 1282, 1372, 1365, 1370, 1367, 1366, 1266, 1269, 1373, 1292, 1290, 1302, 1371, 1283, 1271, 1294, 1374, 1368, 1369 ]
HeLa [2] = experiment: PMA/Ionomycin induced NF-kB luciferase in HeLa cells. [Related pubchem assays (depositor defined):AID1266, AID1269, AID1270, AID1271, AID1280, AID1281, AID1282, AID1283, AID1287, AID1289, AID1290, AID1291, AID1292, AID1293, AID1294, AID1295, AID1299, AID1302, AID1364, AID1365, AID1366, AID1367, AID1368, AID1369, AID1370, AID1371, AID1372, AID1373 …; type: functional, cell-based; conditions: Homo sapiens
Jurkat [3] = experiment: Cytotoxicity assay in Jurkat T cells. [Related pubchem assays (depositor defined):AID1266, AID1269, AID1270, AID1271, AID1280, AID1281, AID1282, AID1283, AID1287, AID1289, AID1290, AID1291, AID1292, AID1293, AID1294, AID1295, AID1299, AID1302, AID1364, AID1365, AID1366, AID1368, AID1369, AID1370, AID1371, AID1372, AID1373, AID1374, AID1375 …; type: functional, cell-based; conditions: Homo sapiens
HEK293 [4] = experiment: TNF Induced NF-kB Luciferase in 293-NF-kB-Luc Stable Cells. [Related pubchem assays: 1266, 1299, 1269, 1373, 1292, 1290, 1302, 1371, 1283, 1270, 1295, 1271, 1375, 1294, 1374, 1281, 1293, 1291, 1289, 1280, 465, 1368, 1364, 1282, 1372, 1365, 1369, 1370, 1367, 1366 ]; type: functional, cell-based; conditions: Homo sapiens
THP-1 = experiment: LPS induced NF-kB in THP.1 cells. [Related pubchem assays (depositor defined):AID1266, AID1269, AID1270, AID1271, AID1280, AID1281, AID1282, AID1283, AID1287, AID1289, AID1290, AID1291, AID1292, AID1293, AID1294, AID1295, AID1299, AID1302, AID1364, AID1365, AID1366, AID1367, AID1368, AID1370, AID1371, AID1372, AID1373, AID1374, AID1375, AID1384 …; type: functional, cell-based; conditions: Homo sapiens
HEK293 [5] = experiment: cells; conditions: Homo sapiens
HEK293 [6] = experiment: cells; conditions: Homo sapiens; remark: listed apart in the source
[7] = biological target: Protein kinase C theta type (Homo sapiens, UniProt Q04759); experiment: In Vitro Kinase Assay Using Purified Enzyme PKC-theta. [Related pubchem assays: 1299, 1270, 1295, 1375, 1287, 1281, 1293, 1291, 1289, 1280, 465, 1364, 1282, 1372, 1365, 1370, 1367, 1366, 1266, 1269, 1373, 1292, 1290, 1302, 1371, 1271, 1294, 1374, 1368, 1369 ]
MCF7 [8] = experiment: PMA/Ionomycin induced NF-kB luciferase in MCF7 cells. [Related pubchem assays (depositor defined):AID1266, AID1269, AID1270, AID1271, AID1280, AID1281, AID1282, AID1283, AID1287, AID1289, AID1290, AID1291, AID1292, AID1293, AID1294, AID1295, AID1299, AID1302, AID1364, AID1365, AID1367, AID1368, AID1369, AID1370, AID1371, AID1372, AID1373, AID1374 …; type: functional, cell-based; conditions: Homo sapiens
MCF7 [9] = experiment: GM-Tri-DAP induced IL-8 production in MCF-7/NOD1 cells. [Related pubchem assays (depositor defined):AID1266, AID1269, AID1270, AID1271, AID1280, AID1281, AID1282, AID1283, AID1287, AID1289, AID1290, AID1291, AID1292, AID1293, AID1294, AID1295, AID1299, AID1302, AID1364, AID1365, AID1366, AID1367, AID1368, AID1369, AID1371, AID1372, AID1373 …; type: functional, cell-based; conditions: Homo sapiens
HEK293 [10] = experiment: cells; conditions: Homo sapiens; remark: listed apart in the source
HEK293 [11] = experiment: cells; conditions: Homo sapiens; remark: listed apart in the source
[12] = biological target: Inhibitor of nuclear factor kappa-B kinase subunit beta (Homo sapiens, UniProt O14920); experiment: In Vitro Kinase Assay Using Purified Enzyme IKK-beta. [Related pubchem assays: 1266, 1299, 1269, 1373, 1292, 1290, 1302, 1371, 1283, 1270, 1295, 1271, 1375, 1294, 1287, 1374, 1281, 1293, 1291, 1289, 1280, 465, 1368, 1364, 1372, 1365, 1369, 1370, 1367, 1366 ]
[13] = biological target: Luciferin 4-monooxygenase (Photinus pyralis, UniProt P08659); experiment: In vitro luciferase assay using purified luciferase. [Related pubchem assays: 1299, 1270, 1295, 1375, 1287, 1281, 1293, 1291, 1289, 1280, 465, 1364, 1282, 1372, 1365, 1370, 1367, 1366, 1266, 1373, 1292, 1290, 1302, 1371, 1283, 1271, 1294, 1374, 1368, 1369 ]
[14] = Anti-cd3/cd28 induced T cell proliferation of mouse primary lymphocytes. [Related pubchem assays: 1299, 1270, 1295, 1375, 1287, 1281, 1293, 1291, 1289, 1280, 465, 1282, 1372, 1365, 1370, 1367, 1366, 1266, 1269, 1373, 1292, 1290, 1302, 1371, 1283, 1271, 1294, 1374, 1368, 1369 ]; type: functional, cell-based
HEK293 [15] = experiment: cells; conditions: Homo sapiens; remark: listed apart in the source
HEK293 [16] = experiment: cells; conditions: Homo sapiens; remark: listed apart in the source
HEK293 [17] = experiment: PMA/Ionomycin induced NF-kB luciferase assay in 293- NF-kB-Luc stable cells. [Related pubchem assays: 1299, 1270, 1295, 1375, 1287, 1281, 1293, 1291, 1289, 1280, 465, 1364, 1282, 1372, 1365, 1370, 1367, 1366, 1269, 1373, 1292, 1290, 1302, 1371, 1283, 1271, 1294, 1374, 1368, 1369 ]; type: functional, cell-based; conditions: Homo sapiens
HeLa [18] = experiment: Cytotoxicity Assay in HeLa Cells. [Related pubchem assays: 1299, 1270, 1295, 1375, 1287, 1281, 1293, 1291, 1289, 1280, 465, 1364, 1282, 1372, 1365, 1370, 1367, 1366, 1266, 1269, 1373, 1292, 1290, 1371, 1283, 1271, 1294, 1374, 1368, 1369 ]; type: functional, cell-based; conditions: Homo sapiens
HEK293 [19] = experiment: Cytotoxicity assay in HEK293 cells. [Related pubchem assays (depositor defined):AID1266, AID1269, AID1270, AID1271, AID1280, AID1281, AID1282, AID1283, AID1287, AID1289, AID1290, AID1291, AID1292, AID1293, AID1294, AID1295, AID1299, AID1302, AID1364, AID1365, AID1366, AID1367, AID1369, AID1370, AID1371, AID1372, AID1373, AID1374, AID1375, AID1384 …; type: functional, cell-based; conditions: Homo sapiens
PPC-1 = experiment: PMA/Ionomycin induced NF-kB luciferase in PPC-1 cells. [Related pubchem assays (depositor defined):AID1266, AID1269, AID1270, AID1271, AID1280, AID1281, AID1282, AID1283, AID1287, AID1289, AID1290, AID1291, AID1292, AID1293, AID1294, AID1295, AID1299, AID1302, AID1364, AID1365, AID1366, AID1367, AID1368, AID1369, AID1370, AID1371, AID1372, AID1373 …; type: functional, cell-based; conditions: Homo sapiens
HEK293 [20] = experiment: cells; conditions: Homo sapiens; remark: listed apart in the source
MCF7 [21] = experiment: Cytotoxicity assay in MCF7 cells. [Related pubchem assays (depositor defined):AID1266, AID1269, AID1270, AID1271, AID1280, AID1281, AID1282, AID1283, AID1287, AID1289, AID1290, AID1291, AID1292, AID1293, AID1294, AID1295, AID1299, AID1302, AID1364, AID1365, AID1366, AID1367, AID1368, AID1369, AID1370, AID1371, AID1372, AID1374, AID1375, AID1384 …; type: functional, cell-based; conditions: Homo sapiens
HEK293 [22] = experiment: PMA/Ionomycin-induced IL-8 production in HEK293- NF-kB-Luc stable cells. [Related pubchem assays: 1299, 1295, 1375, 1287, 1281, 1293, 1291, 1289, 1280, 465, 1364, 1282, 1372, 1365, 1367, 1366, 1266, 1269, 1373, 1292, 1290, 1302, 1371, 1283, 1271, 1294, 1374, 1368, 1369 ]; type: functional, cell-based; conditions: Homo sapiens
[23] = Anti-IgM induced B cell proliferation of mouse primary lymphocytes. [Related pubchem assays: 1266, 1299, 1269, 1373, 1292, 1290, 1302, 1371, 1283, 1270, 1295, 1271, 1375, 1294, 1287, 1374, 1281, 1293, 1291, 1289, 1280, 465, 1368, 1364, 1282, 1372, 1369, 1370, 1367, 1366 ]; type: functional, cell-based
HEK293 [24] = experiment: cells; conditions: Homo sapiens; remark: listed apart in the source
HEK293 [25] = experiment: cells; conditions: Homo sapiens; remark: listed apart in the source
HEK293 [26] = experiment: cells; conditions: Homo sapiens; remark: listed apart in the source
Jurkat [27] = experiment: IL-2 Production Assay in Jurkat T-cells Stimulated with anti-CD3/anti-CD28 antibodies. [Related pubchem assays: 1299, 1270, 1295, 1375, 1287, 1281, 1293, 1291, 1289, 1280, 465, 1364, 1282, 1372, 1365, 1370, 1367, 1366, 1266, 1269, 1373, 1292, 1290, 1302, 1371, 1283, 1294, 1374, 1368, 1369 ]; type: functional, cell-based; conditions: Homo sapiens

Chain of Protein kinase C beta type (P05771 whole entry): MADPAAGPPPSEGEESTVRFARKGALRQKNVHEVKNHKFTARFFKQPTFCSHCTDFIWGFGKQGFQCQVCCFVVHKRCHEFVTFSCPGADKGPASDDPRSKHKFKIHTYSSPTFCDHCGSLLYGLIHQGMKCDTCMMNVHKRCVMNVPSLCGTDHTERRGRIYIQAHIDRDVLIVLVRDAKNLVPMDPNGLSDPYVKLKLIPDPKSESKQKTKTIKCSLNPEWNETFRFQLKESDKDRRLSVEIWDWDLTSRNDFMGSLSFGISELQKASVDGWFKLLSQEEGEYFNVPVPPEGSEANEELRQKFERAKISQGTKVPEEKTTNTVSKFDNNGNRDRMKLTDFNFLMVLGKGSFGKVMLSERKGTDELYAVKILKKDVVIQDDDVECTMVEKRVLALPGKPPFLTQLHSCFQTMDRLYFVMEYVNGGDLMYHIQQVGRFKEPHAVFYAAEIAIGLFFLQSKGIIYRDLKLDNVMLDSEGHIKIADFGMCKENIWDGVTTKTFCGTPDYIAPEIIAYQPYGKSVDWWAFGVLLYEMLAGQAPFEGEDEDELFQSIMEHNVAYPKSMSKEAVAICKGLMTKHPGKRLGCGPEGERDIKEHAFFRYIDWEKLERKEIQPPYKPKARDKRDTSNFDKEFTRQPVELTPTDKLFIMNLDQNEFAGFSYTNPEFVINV
Chain of Protein kinase C theta type (Q04759 whole entry): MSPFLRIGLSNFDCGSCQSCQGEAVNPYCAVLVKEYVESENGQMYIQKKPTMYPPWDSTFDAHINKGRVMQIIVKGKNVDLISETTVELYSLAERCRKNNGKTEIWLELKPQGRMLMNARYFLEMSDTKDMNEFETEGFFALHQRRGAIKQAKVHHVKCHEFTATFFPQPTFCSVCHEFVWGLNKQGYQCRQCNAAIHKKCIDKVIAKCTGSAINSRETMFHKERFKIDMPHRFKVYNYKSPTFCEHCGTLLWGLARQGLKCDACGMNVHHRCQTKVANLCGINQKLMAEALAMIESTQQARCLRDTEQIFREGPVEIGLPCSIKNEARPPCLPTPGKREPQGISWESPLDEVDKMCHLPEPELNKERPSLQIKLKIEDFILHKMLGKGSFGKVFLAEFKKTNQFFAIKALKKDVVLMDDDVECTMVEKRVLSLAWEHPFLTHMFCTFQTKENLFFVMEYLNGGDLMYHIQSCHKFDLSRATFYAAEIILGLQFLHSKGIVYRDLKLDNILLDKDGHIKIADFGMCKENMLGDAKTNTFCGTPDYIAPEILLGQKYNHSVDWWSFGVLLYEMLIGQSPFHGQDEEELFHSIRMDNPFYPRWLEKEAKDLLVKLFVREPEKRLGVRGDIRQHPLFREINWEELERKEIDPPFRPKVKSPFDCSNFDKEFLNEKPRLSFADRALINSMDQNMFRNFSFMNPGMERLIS
Chain of Inhibitor of nuclear factor kappa-B kinase subunit beta (O14920 whole entry): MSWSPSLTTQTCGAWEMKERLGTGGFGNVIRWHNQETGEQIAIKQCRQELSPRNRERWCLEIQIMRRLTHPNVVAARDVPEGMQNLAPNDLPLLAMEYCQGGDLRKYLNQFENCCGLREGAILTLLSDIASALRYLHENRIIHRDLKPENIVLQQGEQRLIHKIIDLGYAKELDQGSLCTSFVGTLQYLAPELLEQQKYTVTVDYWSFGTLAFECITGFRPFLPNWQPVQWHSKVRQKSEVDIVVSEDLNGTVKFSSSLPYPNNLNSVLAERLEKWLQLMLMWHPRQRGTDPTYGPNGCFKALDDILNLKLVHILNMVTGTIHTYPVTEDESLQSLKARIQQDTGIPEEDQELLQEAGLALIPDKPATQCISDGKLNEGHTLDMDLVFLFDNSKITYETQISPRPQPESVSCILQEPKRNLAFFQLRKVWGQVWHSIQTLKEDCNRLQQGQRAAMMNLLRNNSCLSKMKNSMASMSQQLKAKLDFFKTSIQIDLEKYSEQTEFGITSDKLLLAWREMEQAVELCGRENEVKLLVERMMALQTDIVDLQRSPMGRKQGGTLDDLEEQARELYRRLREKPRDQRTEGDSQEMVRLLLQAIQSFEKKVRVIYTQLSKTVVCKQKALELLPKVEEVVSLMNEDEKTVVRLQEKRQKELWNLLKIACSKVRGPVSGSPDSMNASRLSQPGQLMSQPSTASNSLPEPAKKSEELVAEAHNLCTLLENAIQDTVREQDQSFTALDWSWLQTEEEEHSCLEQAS
Chain of Luciferin 4-monooxygenase (P08659 whole entry): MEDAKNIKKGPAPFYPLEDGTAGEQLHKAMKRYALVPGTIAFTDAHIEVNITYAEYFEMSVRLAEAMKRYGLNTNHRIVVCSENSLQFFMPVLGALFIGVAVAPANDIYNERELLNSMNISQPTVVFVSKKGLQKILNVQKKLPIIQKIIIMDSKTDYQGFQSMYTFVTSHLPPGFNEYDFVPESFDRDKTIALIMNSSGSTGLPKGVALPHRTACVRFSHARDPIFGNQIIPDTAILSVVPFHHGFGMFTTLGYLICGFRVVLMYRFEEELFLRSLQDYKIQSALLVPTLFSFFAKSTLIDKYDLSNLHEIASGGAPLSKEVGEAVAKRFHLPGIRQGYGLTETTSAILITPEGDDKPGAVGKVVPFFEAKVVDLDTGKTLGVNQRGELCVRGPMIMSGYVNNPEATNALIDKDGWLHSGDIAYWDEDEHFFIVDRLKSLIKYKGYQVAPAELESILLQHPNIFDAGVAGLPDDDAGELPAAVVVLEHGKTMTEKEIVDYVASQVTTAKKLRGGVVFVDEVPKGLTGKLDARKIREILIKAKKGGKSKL

For Cc1cc2nc(NCCCO)n(CC(=O)c3cc(C(C)(C)C)c(O)c(C(C)(C)C)c3)c2cc1C, the EC50 [1] was > 4 µM (not active), the EC50 (HeLa [2]) was > 4 µM (inactive) and the EC50 (Jurkat [3]) was > 8 µM (inactive). The EC50 (HEK293 [4]) was > 8 µM (not active), the EC50 (THP-1) was 5.74 µM (inactive) and the EC50 (HEK293 [5]) was 0.23 µM (active). For the same compound, the EC50 (HEK293 [6]) was > 4 µM (not active), the EC50 [7] was > 4 µM (not active) and the EC50 (MCF7 [8]) was > 4 µM (inactive). The EC50 (MCF7 [9]) was > 8 µM (inactive), the EC50 (HEK293 [10]) was > 4 µM (not active) and the EC50 (HEK293 [11]) was > 4 µM (not active). The EC50 [12] was > 4 µM (not active), the EC50 [13] was > 8 µM (not active) and the EC50 [14] was > 4 µM (not active). The EC50 (HEK293 [15]) was 0.672 µM (active), the EC50 (HEK293 [16]) was > 4 µM (not active) and the EC50 (HEK293 [17]) was 0.129 µM (active). For the same compound, the EC50 (HeLa [18]) was > 4 µM (not active), the EC50 (HEK293 [19]) was > 8 µM (inactive) and the EC50 (PPC-1) was > 4 µM (inactive). For the same compound, the EC50 (HEK293 [20]) was > 4 µM (not active), the EC50 (MCF7 [21]) was > 8 µM (inactive) and the EC50 (HEK293 [22]) was 0.0604 µM (active). For the same compound, the EC50 [23] was 2.81 µM (active), the EC50 (HEK293 [24]) was > 4 µM (inactive) and the EC50 (HEK293 [25]) was > 4 µM (inactive). The EC50 (HEK293 [26]) was > 4 µM (not active) and the EC50 (Jurkat [27]) was 2.57 µM (active).
